Data taken from EP3415164A1, “COMPOSITION COMPRISING A SPECIFIC P38A INHIBITOR AND AN AGENT THAT INDUCES CHROMOSOME INSTABILITY AND MEDICAL USES THEREOF” (Fundació Institut de Recerca Biomèdica (IRB Barcelona), priority 2017, dated 2018).

How the values were obtained:
[1] = test system: PyMT-induced mammary tumours; experiment: Growth, DNA damage and mitotic figures of PyMT-induced mammary tumours in treated mice; assay type: in vivo; settings: for effect on tumour growth: taxane administered alone, 20 mg/kg once a week for three weeks
Experimental: Mouse experiments. PyMT p38αlox/lox UbCre female mice were generated by crossing p38αlox/lox mice (Ventura et al., 2007) with MMTV-PyMT, provided by William Muller (McGill University, Canada) and UbiquitinC-Cre-ERT2 mice (Ruzankina et al., 2007), being all mostly in FVB background. Mouse genotyping was performed by PCR using genomic tail DNA. Primers and conditions are available upon request. Mice were housed according to national and European Union regulations, and protocols were approved by the animal care and use committee of the Barcelona Science Park (PCB-CEEA). […] For p38α deletion, 4OHT (Sigma, H6278) was dissolved in 10% ethanol/90% corn oil (Sigma, C8267) and mice were injected intraperitoneally with 1 mg each day for five consecutive days. For chemotherapeutic treatments, mice were injected once a week with 20 mg/kg of docetaxel (Accord, 691719.0) or 20 mg/kg paclitaxel (Accord, 676253.0), for three consecutive weeks. […] Histology and immunohistochemistry. Tumours dissected from mice were fixed overnight in 10%-buffered formalin (Sigma, HT501128) and embedded in paraffin. Sections (5 µm-thick) were stained with hematoxylin and eosin (H&E). Specific antibodies were used for the following stainings: Ki67 (Novacastra, NCL), phospho-H3 (Millipore, 06-570), γ-H2AX (Millipore, 05-636). […] Apoptosis was detected by TUNEL using the "In situ Cell Death Detection Kit, Fluorescein" (Roche, 11684795910), following the manufacturer's instructions.

[2] = test system: breast tumour patient-derived xenografts (PDXs); experiment: Breast tumour patient-derived xenografts (PDXs) treated with taxanes and PH797804; assay type: in vivo
[3] = combination therapy versus single treatments, around day 15, responding PDXs (TN1, TN2, Lum1, Lum2)
[4] = PH797804 in combination with paclitaxel or docetaxel

Row | Structure (SMILES) | effect on tumour growth [1] | aneuploidy (FISH, chromosome 17 centromeric probe) ([2]; PH797804 with paclitaxel versus paclitaxel) | detrimental outcome induced by p38α inhibition ([2]; all nine PDXs) | anti-tumour response ([2]; co-administration with paclitaxel or docetaxel versus taxane alone, most cases (seven of nine PDXs)) | anti-tumour response ([2]; co-administration with taxane, PDX models TN5 and Lum4) | missegregation events [2, 3] | γ-H2AX staining [2, 3] | effect on tumour growth ([2]; p38α inhibition (PH797804) alone, 15 mg/kg daily oral, most PDX models) | tumour size ([1]; PH797804 15 mg/kg daily by oral gavage in combination with paclitaxel or docetaxel) | DNA damage (γ-H2AX staining) [1, 4] | missegregation events (phospho-H3 staining) [1, 4]
1 | CC(=O)O[C@@]12CO[C@@H]1C[C@H](O)[C@@]1(C)C(=O)[C@H](O)C3=C(C)[C@@H](OC(=O)[C@H](O)[C@@H](NC(=O)OC(C)(C)C)c4ccccc4)C[C@@](O)([C@@H](OC(=O)c4ccccc4)[C@H]21)C3(C)C [docetaxel] | only exerted a cytostatic effect on tumour growth | – | – | – | – | – | – | – | – | – | –
2 | CNC(=O)c1ccc(C)c(-n2c(C)cc(OCc3ccc(F)cc3F)c(Br)c2=O)c1 [PH797804] | – | usually enhanced the aneuploidy induced by paclitaxel | never observed increased tumour growth or any other detrimental outcome | enhanced, accelerated or prolonged the anti-tumour response observed with the taxane alone | no additional benefit was observed | increased percentage of missegregation events | increased γ-H2AX staining | mild effect on tumour growth | substantial reduction of tumour size | increased levels of DNA damage | higher number of missegregation events
3 | CC(=O)O[C@H]1C(=O)[C@@]2(C)[C@H]([C@H](OC(=O)c3ccccc3)[C@]3(O)C[C@H](OC(=O)[C@H](O)[C@@H](NC(=O)c4ccccc4)c4ccccc4)C(C)=C1C3(C)C)[C@]1(OC(C)=O)CO[C@@H]1C[C@@H]2O [paclitaxel] | only exerted a cytostatic effect on tumour growth | – | – | – | – | – | – | – | – | – | –
